Laboratory results as given in patent US20240245691A1 (Sitryx Therapeutics Limited, priority 2021, published 2024).
pEC50, pIC50: −log10 of the molar value. Where two headings read alike, the source gives them in different places.

What was measured:
IL-1β = assay: THP-1 AlphaLISA IL-1β cytokine assay (differentiated THP-1 cells); type: cell-based; settings: Homo sapiens
Procedure: (§1) Measuring Inhibitory Effects on IL-1V Cytokine and IL-6 Output from THP-1s
(§2) The cytokine inhibition profiles of compounds of formula (I) were determined in a differentiated THP-1 cell assay. All assays were performed in RPMI-1640 growth medium (Gibco), supplemented with 10% fetal bovine serum (FBS; Gibco), 1% penicillin-streptomycin and 1% sodium pyruvate unless specified otherwise. The IL-1β and IL-6 cytokine inhibition assays were run in a background of differentiated THP-1 cells as described below. All reagents described were from Sigma-Aldrich unless specified otherwise. Compounds were prepared as 10 mM DMSO stocks.
(§3) THP-1 cells were expanded as a suspension up to 80% confluence in appropriate growth medium. Cells were harvested, suspended, and treated with an appropriate concentration of phorbol 12-myristate 13-acetate (PMA) over a 72 hr period (37° C./5% CO2).
(§4) Following 72 hrs of THP-1 cell incubation, cellular medium was removed and replaced with fresh growth media containing 1% of FBS. Working concentrations of compounds were prepared separately in 10% FBS treated growth medium and pre-incubated with the cells for 30 minutes (37° C./5% CO2). Following the 30 minute compound pre-incubation, THP-1s were treated with an appropriate concentration of LPS and the THP-1s were subsequently incubated for a 24 hr period (37° C./5% CO2). An appropriate final concentration of Nigericin was then dispensed into the THP-1 plates and incubated for 1 hour (37° C./5% CO2) before THP-1 supernatants were harvested and collected in separate polypropylene 96-well holding plates.
(§5) Reagents from each of the IL-1β and IL-6 commercial kits (Perkin Elmer) were prepared and run according to the manufacturer's instructions. Subsequently, fluorescence signal detection in a microplate reader was measured (EnVision® Multilabel Reader, Perkin Elmer).
(§6) Percentage inhibition was calculated per cytokine by normalising the sample data to the high and low controls used within each plate (+/−LPS respectively).
(§7) Dimethyl itaconate and 4-octyl itaconate were included as comparator compounds.

IL-6 = assay: THP-1 AlphaLISA IL-6 cytokine assay (differentiated THP-1 cells); type: cell-based
Procedure: as §1, §2, §3, §4, §5, §6, §7

[1] = Hepatocyte stability assay, human; type: in vitro ADME; settings: human, hepatocytes, T½
Description: (§8) Defrosted cryo-preserved hepatocytes (viability>70%) were used to determine the metabolic stability of a compound via calculation of intrinsic clearance (CIint; a measure of the removal of a compound from the liver in the absence of blood flow and cell binding). Clearance data are particularly important for in vitro work as they can be used in combination with in vivo data to predict the half-life and oral bioavailability of a drug.
(§9) The metabolic stability in hepatocytes assay involved a time-dependent reaction using both positive and negative controls. The cells must be pre-incubated at 37° C. then spiked with test compound (and positive control); samples taken at pre-determined time intervals were analysed to monitor the change in concentration of the initial drug compound over 60 minutes. A buffer incubation reaction (with no hepatocytes present) acted as a negative control and two cocktail solutions, containing compounds with known high and low clearance values (verapamil/7-hydroxycoumarin and propranolol/diltiazem), acted as positive controls. • 1. The assay was run with a cell concentration of 0.5×10^6 cells/mL in Leibovitz buffer. • 2. All compounds and controls were run in duplicate. • 3. Compound concentration was 10 μM. • 4. All compounds and controls were incubated with both cells and buffer to show turnover is due to hepatic metabolism. • 5. All wells on the incubation plate had 326.7 μL of either cells or buffer added. • 6. Prior to assay, cell and buffer-only incubation plates were preincubated for 10 mins at 37° C. • 7. The assay was initiated by adding compounds, 3.3 μL of 1 mM in 10% DMSO-90% Buffer; final DMSO concentration is 0.1%. • 8. Samples were taken at regular timepoints (0, 5, 10, 20, 40, 60 min) until 60 mins. • 9. Sample volume was 40 μL and added to 160 μL of crash solvent (acetonitrile with internal standard) and stored on ice. • 10. At the end of the assay, the crash plates were centrifuged at 3500 rpm for 20 mins at 4° C. • 11. 80 μL of clear supernatant was removed and mixed with 80 μL of deionised water before being analysed by LC-MS/MS.
(§10) Raw LC-MS/MS data were exported to, and analysed in, Microsoft Excel for determination of intrinsic clearance. The percentage remaining of a compound was monitored using the peak area of the initial concentration as 100%. Intrinsic clearance and half-life values were calculated using a graph of the natural log of percentage remaining versus the time of reaction in minutes.
(§11) 4-Octyl itaconate was included as a comparator compound.

[2] = tested on: cryo-preserved hepatocytes; assay: Hepatocyte stability assay, human; type: in vitro ADME; settings: human, hepatocytes
Description: as §8, §9, §10, §11

[3] = Hepatocyte stability assay, mouse; type: in vitro ADME; settings: mouse, hepatocytes, T½
Description: as §8, §9, §10, §11

[4] = tested on: cryo-preserved hepatocytes; assay: Hepatocyte stability assay, mouse; type: in vitro ADME; settings: mouse, hepatocytes
Description: as §8, §9, §10, §11

[5] = tested on: NRF2 (nuclear factor erythroid 2-related factor 2); assay: NRF2 +/-GSH activation assay (DiscoverX PathHunter NRF2 translocation kit, U2OS cells); type: cell-based; settings: Homo sapiens; for Emax: U2OS, normalised to dimethyl fumarate high control; for pEC50: U2OS PathHunter cells, 6 hours
[6] = THP-1, differentiated THP-1 cells, LPS 24 hr then Nigericin 1 hour, read-out: IL-1β (IC50)
[7] = Homo sapiens, THP-1, differentiated THP-1 cells, LPS 24 hr then Nigericin 1 hour, read-out: IL-6 (IC50)

| Structure (SMILES) | pIC50 (IL-1β; [6]) | pIC50 (IL-6; [7]) | half-life at 10 μM [1] [h] | Clint [2] [μL min^−1 10^−6 cells] | half-life at 10 μM [3] [h] | Clint [4] [μL min^−1 10^−6 cells] | pIC50 (IL-1β; THP-1, differentiated THP-1 cells, footnote a: data from repeated experiments, read-out: IL-1β (IC50), data from repeated experiments) | pIC50 (IL-6; differentiated THP-1 cells, LPS 24 hr then Nigericin 1 hour, read-out: IL-6 (IC50)) | pEC50 ([5]; +GSH, read-out: NRF2 activation EC50, +GSH) | pEC50 ([5]; −GSH, read-out: NRF2 activation EC50, −GSH) | half-life at 10 μM ([1]; data from repeated experiments) [h] | Clint, data from repeated experiments [2] | half-life at 10 μM ([3]; data from repeated experiments) [h] | Clint, data from repeated experiments [4] [μL min^−1 10^−6 cells] | pIC50 (IL-1β; THP-1, read-out: IL-1β (IC50)) | pIC50 (IL-6; Homo sapiens, THP-1, read-out: IL-6 (IC50)) | Emax ([5]; +GSH, read-out: NRF2 activation Emax, +GSH) [%] | Emax ([5]; −GSH, read-out: NRF2 activation Emax, −GSH) [%] |
| --- | --- | --- | --- | --- | --- | --- | --- | --- | --- | --- | --- | --- | --- | --- | --- | --- | --- | --- |
| C=C(CC(=O)NC1(c2ccc(C(F)(F)F)cn2)CCC1)C(=O)O [Example 39, 2-methylene-4-oxo-4-((1-(5-(trifluoromethyl)pyridin-2-yl)cyclobutyl)amino) butanoic acid] | 4.81 | < 4.00 | > 7.67 | <3 | > 7.67 | <3 |  |  |  |  |  |  |  |  |  |  |  |  |
| C/C=C(/CC(=O)N[C@@H](C)c1ccc(C(F)(F)F)cc1)C(=O)O [Example 41, (S,Z)-2-(2-oxo-2-((1-(4-(trifluoromethyl)phenyl)ethyl)amino)ethyl)but-2-enoic acid] |  |  | > 7.67 | <3 | > 7.67 | <3 |  |  |  |  |  |  |  |  | 4.61 | < 4.50 |  |  |
| C=C(CC(=O)N[C@@H](C)c1ccc(C(F)(F)C(F)(F)F)cc1)C(=O)O [Example 20, (S)-2-methylene-4-oxo-4-((1-(4-(perfluoroethyl)phenyl)ethyl)amino)butanoic acid] | 4.76 | < 4.00 | > 7.67 | <3 | 0.633 | 38 |  |  |  |  |  |  |  |  |  |  |  |  |
| C=C(CC(=O)N[C@@H](C)c1ccc(SC(F)(F)F)cc1)C(=O)O [Example 17] | 4.86 | < 4.50 | 3.72 | 8 | 1.58 | 16 |  |  |  |  |  |  |  |  |  |  |  |  |
| C=C(C(=O)O)C(C)C(=O)N[C@@H](C)c1ccc(C(F)(F)F)cc1 (single isomer, unassigned; isomer 1) [Example 54] | 4.51 |  | > 7.67 | <3 | 6.67 | 4 |  | < 4.00 |  |  |  |  |  |  |  |  |  |  |
| C=C(CC(=O)NCc1ccc(Cl)cc1)C(=O)OC1CCN(S(C)(=O)=O)CC1 [Example 1, 1-(methylsulfonyl)piperidin-4-yl 4-((4-chlorobenzyl)amino)-2-methylene-4-oxobutanoate] | 4.91 |  | 1.95 | 12 | 1.63 | 31 |  |  | < 4.00 | 4.65 | 0.783 | 31ª μL min^−1 10^−6 cells | 0.183 | 133 |  |  | 19 | 63 |

Further lines, with some results ahead:

| pIC50 (IL-1β; [6]) | pIC50 (IL-6; [7]) | half-life at 10 μM [1] [h] | Clint [2] [μL min^−1 10^−6 cells] | half-life at 10 μM [3] [h] | Clint [4] [μL min^−1 10^−6 cells] | pIC50 (IL-1β; THP-1, differentiated THP-1 cells, footnote a: data from repeated experiments, read-out: IL-1β (IC50), data from repeated experiments) | pIC50 (IL-6; differentiated THP-1 cells, LPS 24 hr then Nigericin 1 hour, read-out: IL-6 (IC50)) | pEC50 ([5]; +GSH, read-out: NRF2 activation EC50, +GSH) | pEC50 ([5]; −GSH, read-out: NRF2 activation EC50, −GSH) | half-life at 10 μM ([1]; data from repeated experiments) [h] | Clint, data from repeated experiments [2] | half-life at 10 μM ([3]; data from repeated experiments) [h] | Clint, data from repeated experiments [4] [μL min^−1 10^−6 cells] | Structure (SMILES) | pIC50 (IL-1β; THP-1, read-out: IL-1β (IC50)) | pIC50 (IL-6; Homo sapiens, THP-1, read-out: IL-6 (IC50)) | Emax ([5]; +GSH, read-out: NRF2 activation Emax, +GSH) [%] | Emax ([5]; −GSH, read-out: NRF2 activation Emax, −GSH) [%] |
| --- | --- | --- | --- | --- | --- | --- | --- | --- | --- | --- | --- | --- | --- | --- | --- | --- | --- | --- |
| 5.68 | < 4.50 | 3.83 | 8 | 0.793 | 30 |  |  |  |  |  |  |  |  | CC(C)C/C=C(\CC(=O)N[C@@H](C)c1ccc(C(F)(F)F)cc1)C(=O)O [Example 45, (S,E)-5-methyl-2-(2-oxo-2-((1-(4-(trifluoromethyl)phenyl)ethyl)amino)ethyl)hex-2-enoic acid] |  |  |  |  |
| 5.74 | 5.44 | 0.183 | 151 | 0.167 | 205 |  |  |  |  |  |  |  |  | C=C(CC(=O)N[C@@H](C)c1ccc(C(F)(F)F)cn1)C(=O)OC1CS(=O)(=O)C1 [Example 33, 1,1-dioxidothietan-3-yl (S)-2-methylene-4-oxo-4-((1-(5-(trifluoromethyl)pyridin-2-yl)ethyl)amino)butanoate] |  |  |  |  |
| 5.09 | < 4.00 | > 7.67 | <3 | 1.25 | 21 |  |  |  |  |  |  |  |  | C=C(CC(=O)NC(c1ccc(C(F)(F)F)cc1)C(F)(F)F)C(=O)O (centres unmarked) [Example 7, 2-methylene-4-oxo-4-((2,2,2-trifluoro-1-(4-(trifluoromethyl)phenyl)ethyl)amino)butanoic acid] |  |  |  |  |
| 5.96 | < 4.00 | > 7.67 | <3 | 1.73 | 13 |  |  |  |  |  |  |  |  | C=C(C(=O)O)C(C)(C)C(=O)N[C@@H](C)c1ccc(C(F)(F)F)cc1 [Example 50, (S)-3,3-dimethyl-2-methylene-4-oxo-4-((1-(4-(trifluoromethyl)phenyl)ethyl)amino)butanoic acid] |  |  |  |  |
| 5.06 | < 4.50 | 7.28 | 4 | 6.7 | 4 |  |  |  |  |  |  |  |  | C=C(CC(=O)N[C@@H](C)c1ccc(C(F)(F)F)c(F)c1)C(=O)O [Example 19, (S)-4-((1-(3-fluoro-4-(trifluoromethyl)phenyl)ethyl)amino)-2-methylene-4-oxobutanoic acid] |  |  |  |  |
| 5.64 | < 4.00 | 3.73 | 7 | 0.267 | 95 |  |  |  |  |  |  |  |  | C[C@H](NC(=O)C/C(=C/c1ccccc1)C(=O)O)c1ccc(C(F)(F)F)cc1 [Example 48, (S,Z)-2-benzylidene-4-oxo-4-((1-(4-(trifluoromethyl)phenyl)ethyl)amino)butanoic acid] |  |  |  |  |
| 5.42 | < 4.25 | 4.68 | 6 | 4.1 | 7 | 5.31 |  |  |  |  |  |  |  | C=C(CC(=O)N[C@@H](C)c1ccc(Br)cc1)C(=O)O [Example 16, (S)-4-((1-(4-bromophenyl)ethyl)amino)-2-methylene-4-oxobutanoic acid] |  |  |  |  |
| 5.40 | < 4.00 | > 7.67 | <3 | 0.367 | 76 |  |  |  |  |  |  |  |  | C=C(CC(=O)N[C@H](c1ccc(C(F)(F)F)cc1)C(F)(F)F)C(=O)O [Example 21, (R)-2-methylene-4-oxo-4-((2,2,2-trifluoro-1-(4-(trifluoromethyl)phenyl)ethyl)amino)butanoic acid] |  |  |  |  |
